Assay results as given in ChEMBL document CHEMBL1159262, “Bioactive diterpenoids from Octocorallia, 2. Deoxyxeniolide B, a novel ichthyotoxic diterpenoid from the soft coral Xenia elongata” (J Nat Prod, 1995).

Tested on: Oryzias latipes
Test: Ichthyotoxicity against Oryzias latipes after 1 hr
Assay type: organism-based
Details: in vivo

SMILES	Activity	LC100 [ppm]
C=C1CC[C@@H]2O[C@@]2(C)CC[C@@H]2/C(=C\C=C\C(C)(C)O)COC(=O)[C@@H]12	Non-toxic	
C=C1CC[C@@H]2O[C@@]2(C)CC[C@@H]2/C(=C\CC=C(C)C)COC(=O)[C@@H]12	Non-toxic	
C=C1CC/C=C(\C)CC[C@@H]2/C(=C\CC=C(C)C)COC(=O)[C@@H]12 [DEOXYXENIOLIDE B]		15
